This is an account of results in patent US20190225650A1, “PEPTIDOMIMETIC MACROCYCLES AND USE THEREOF IN REGULATING HIF1ALPHA” (AILERON THERAPEUTICS, INC., priority 2013, published 2019).

Bridge positions count the residues as written; N and C are the ends. Square brackets hold non-standard residues; d marks the D form. Peptide text beside a SMILES is read from it. R8 = C=CCCCCCC[C@@](C)(N)C(=O)O; S5 = C=CCCC[C@](C)(N)C(=O)O; Nle = CCCC[C@H](N)C(=O)O

Test [1] has as its system HRE-bla ME-180 cells. Nature of the test: Reporter gene assay (HRE-bla ME-180 HIF reporter, GeneBLAzer). Format: cell-based, human. The following applies: for EC50: 24 hour normoxia. The method, boiled down:
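A FRET β-lactamase readout of HIF transcription was used. After compound treatment in 0.3% DMSO/media under normoxic conditions, 20 μl of 6× LiveBLAzer-FRET B/G (CCF4-AM) substrate was added. Plates sat 3 hr at room temperature in the dark and were read at 409 Ex/460Em and 409Ex/530Em on a Synergy 2. Inhibition was compared against DMSO vehicle controls, with chetomin as positive control.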

Test [2] has as its target T1, flag-tagged HIF1α (AA 786-826) / His6-tagged p300 (AA 323-423) complex (Homo sapiens, UniProt Q09472).
T1 construct: His6-tagged p300 (AA 323-423); made in house; host or cells: E. coli (pETDuet vector)
Briefly: HIF1α p300 displacement assay (TR FRET, +CHAPS). The following applies: read-out: IC50 (nM) (HIF1α_p300 Displacement + CHAPS). In kind it is binding. The essentials:
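The co-expressed flag-HIF1α (786-826)/His6-p300 (323-423) complex, purified from E. coli with 0.1 mM ZnSO4, was used at 300 nM final with competitor peptides for 1 h at room temperature. Buffer was 150 mM NaCl, 20 mM HEPES pH 7.4, 7.5 mM CHAPS and 1 mM DTT. Anti-Flag-K (0.5 μM) and anti-His-D2 (4 nM) were then added for 2 h, and IC50s were fitted from the TR-FRET ratio.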

Test [3] deals with HRE-bla ME-180 cells. Briefly: Cell proliferation assay (viability, MTT, 1% FBS). In kind it is cell-based, human. The method, boiled down:
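ME-180 cells (2×10^4/well) in Opti-MEM with 1% FBS were pretreated 16 h under normoxia (21% O2), vehicle 0.5% DMSO final. Incubation then continued under normoxia or hypoxia (1% O2); viable cells quantified by MTT-type CellTiter 96 assay.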

As for `CCCC[C@H](NC(=O)[C@H](CCC(=O)O)NC(=O)[C@]1(C)CCCC=CCCCCCC[C@@](C)(NC(=O)[C@H](CCC(=O)O)NC(=O)[C@H](CC(=O)O)NC(=O)[C@@H](NC(=O)[C@H](CC(N)=O)NC(=O)[C@@H](NC(=O)[C@H](CCC(N)=O)NC(=O)[C@]2(C)CCCC=CCCC[C@](C)(NC(=O)[C@H](CC(C)C)NC(=O)[C@H](CCC(=O)O)NC(=O)[C@H](CCC(=O)O)NC(C)=O)C(=O)N[C@@H](CCCNC(=N)N)C(=O)N[C@@H](C)C(=O)N[C@@H](CC(C)C)C(=O)N2)C(C)C)[C@@H](C)CC)C(=O)N[C@@H](C(C)C)C(=O)N[C@@H](CC(C)C)C(=O)N[C@@H](CCCC)C(=O)N[C@@H](CO)C(=O)N[C@@H](CC(C)C)C(=O)N[C@@H](C(C)C)C(=O)N1)C(N)=O` [SP-366] (Ac-EEL[S5]RAL[S5]QVNIDE[R8]VL[Nle]SLV[S5]E[Nle]-NH2; staple 4-8, 15-22), in the test with HRE-bla ME-180 cells [1], the “18 h Avg % max inhibition at top conc (HIF Rptr-24 hrs normoxia) (μM)” value (shortened to “18 h Avg % max inhibition at top conc”) was “++++ (≥50: ++++)” and the EC50 is ≤ 5 µM. Moreover, in test [2], the IC50 was > 700 nM. Also, the “Viability 1% FBS AVG (MTT V3-24 hr Normoxia) (μM)” value (“Viability 1% FBS AVG” for short) in the test with HRE-bla ME-180 cells [3] was “++++ (≥30: ++++)”.

Regarding `CC[C@H](C)[C@H](NC(=O)[C@H](C)NC(C)=O)C(=O)N[C@@H](CC(=O)O)C(=O)N[C@@H](CCC(=O)O)C(=O)N[C@@H](CCC(=O)O)C(=O)N[C@H](C(=O)N[C@@H](CC(C)C)C(=O)N[C@@H](CCSC)C(=O)N[C@@]1(C)CCCC=CCCC[C@@](C)(C(=O)N[C@@H](CCSC)C(=O)N[C@@H](C)C(=O)N[C@@H](CC(C)C)C(N)=O)NC(=O)[C@H]([C@@H](C)CC)NC(=O)[C@H](C(C)C)NC(=O)[C@H](CC(C)C)NC1=O)C(C)C` [SP-217] (Ac-AIDEEVLM[S5]LVI[S5]MAL-NH2; staple 9-13), in the test with HRE-bla ME-180 cells [1], the “18 h Avg % max inhibition at top conc” value is given as “+++ (≤25 but <50: +++)” and the EC50 is > 30 µM. Further, the IC50 in test [2] is > 700 nM. Further, the “Viability 1% FBS AVG” value in the test on HRE-bla ME-180 cells [3] is reported as “++++ (≥30: ++++)”.

For the compound `CCCC[C@@H]1NC(=O)[C@H](CC(C)C)NC(=O)[C@H](C(C)C)NC(=O)[C@@](C)(NC(=O)[C@H](CCC(=O)O)NC(=O)[C@H](CC(=O)O)NC(=O)[C@@H](NC(=O)[C@H](Cc2ccccc2)NC(C)=O)[C@@H](C)CC)CCCC=CCCC[C@@](C)(C(=O)N[C@@H](CC(C)C)C(=O)N[C@H](C(=O)N[C@H](C(=O)N[C@@H](CCC(=O)O)C(=O)N[C@@H](CO)C(=O)N[C@@H](C)C(=O)N[C@@H](CC(C)C)C(N)=O)[C@@H](C)CC)C(C)C)NC1=O` [SP-147] (Ac-FIDE[S5]VL[Nle][S5]LVIESAL-NH2; staple 5-9), in the test on HRE-bla ME-180 cells [1], the “18 h Avg % max inhibition at top conc” value was “+++ (≤25 but <50: +++)” and the EC50 lay within 15 to 30 µM. Besides, the IC50 in test [2] was > 700 nM. Also, in the test with HRE-bla ME-180 cells [3], the “Viability 1% FBS AVG” value is “++++ (≥30: ++++)”.

On to `CCCC[C@H](NC(=O)[C@H](CCC(=O)O)NC(=O)[C@]1(C)CCCC=CCCCCCC[C@@](C)(NC(=O)[C@H](CCC(=O)O)NC(=O)[C@H](C)NC(=O)[C@@H](NC(=O)[C@H](CC(N)=O)NC(=O)[C@@H](NC(=O)[C@]2(C)CCCC=CCCCCCC[C@@](C)(NC(=O)[C@H](CCC(=O)O)NC(=O)CNC(=O)[C@H](CCC(N)=O)NC(=O)[C@H](CC(C)C)NC(=O)[C@H](CC(C)C)NC(C)=O)C(=O)N[C@@H](CC(C)C)C(=O)N[C@@H](CC(C)C)C(=O)N[C@@H](CCCNC(=N)N)C(=O)N[C@@H](C)C(=O)N[C@@H](CC(C)C)C(=O)N[C@@H](CC(=O)O)C(=O)N2)C(C)C)[C@@H](C)CC)C(=O)N[C@@H](C(C)C)C(=O)N[C@@H](CC(C)C)C(=O)N[C@@H](CCCC)C(=O)N[C@@H](CO)C(=O)N[C@@H](CC(C)C)C(=O)N[C@@H](C(C)C)C(=O)N1)C(N)=O` [SP-355] (Ac-LLQGE[R8]LLRALD[S5]VNIAE[R8]VL[Nle]SLV[S5]E[Nle]-NH2; staple 6-13, 19-26), for which, in the test on HRE-bla ME-180 cells [1], the “18 h Avg % max inhibition at top conc” value was “++ (≤10 but <25: ++)” and the EC50 was > 30 µM. Moreover, the IC50 in test [2] was ≤ 200 nM. The “Viability 1% FBS AVG” value with HRE-bla ME-180 cells [3] is listed as “++++ (≥30: ++++)”.

With `CCCC[C@H](NC(=O)[C@H](CCC(=O)O)NC(=O)[C@@H](NC(=O)[C@@H](NC(=O)[C@H](CC(C)C)NC(=O)[C@]1(C)CCCC=CCCC[C@](C)(NC(=O)[C@H](CCC(=O)O)NC(=O)[C@H](CCCNC(=N)N)NC(=O)[C@@H](NC(=O)[C@H](Cc2ccccc2)NC(C)=O)[C@@H](C)CC)C(=O)N[C@@H](C(C)C)C(=O)N[C@@H](CC(C)C)C(=O)N[C@@H](CCCC)C(=O)N1)C(C)C)[C@@H](C)CC)C(=O)N[C@@H](C)C(=O)N[C@@H](CC(C)C)C(N)=O` [SP-155] (Ac-FIRE[S5]VL[Nle][S5]LVIE[Nle]AL-NH2; staple 5-9), in the test on HRE-bla ME-180 cells [1], the “18 h Avg % max inhibition at top conc” value is “++ (≤10 but <25: ++)” and the EC50 is > 30 µM. In addition, in test [2], the half-inhibitory concentration (IC50) is > 700 nM. Further, the “Viability 1% FBS AVG” value in the test on HRE-bla ME-180 cells [3] is “++++ (≥30: ++++)”.

For `CCCC[C@H](NC(=O)[C@H](CCC(=O)O)NC(=O)[C@@H](NC(=O)[C@]1(C)CCCC=CCCC[C@](C)(NC(=O)[C@@H](NC(=O)[C@H](CCC(=O)O)NC(=O)[C@H](CCC(=O)O)NC(=O)[C@H](CC(=O)O)NC(=O)[C@@H](NC(=O)[C@H](CC(N)=O)NC(=O)[C@@H](NC(=O)[C@]2(C)CCCC=CCCCCCC[C@@](C)(NC(=O)[C@H](CCC(=O)O)NC(=O)CNC(=O)[C@H](CCC(N)=O)NC(=O)[C@H](CC(C)C)NC(=O)[C@H](CC(C)C)NC(C)=O)C(=O)N[C@@H](CC(C)C)C(=O)N[C@@H](CC(C)C)C(=O)N[C@@H](CCCNC(=N)N)C(=O)N[C@@H](C)C(=O)N[C@@H](CC(C)C)C(=O)N[C@@H](CC(=O)O)C(=O)N2)C(C)C)[C@@H](C)CC)C(C)C)C(=O)N[C@@H](CCCC)C(=O)N[C@@H](CO)C(=O)N[C@@H](CC(C)C)C(=O)N1)[C@@H](C)CC)C(=O)NCC(N)=O` [SP-305] (Ac-LLQGE[R8]LLRALD[S5]VNIDEEV[S5][Nle]SL[S5]IE[Nle]G-NH2; staple 6-13, 21-25), in the test with HRE-bla ME-180 cells [1], the “18 h Avg % max inhibition at top conc” value was “++++ (≥50: ++++)” and the EC50 was > 30 µM. Besides, in test [2], the IC50 is ≤ 200 nM. The “Viability 1% FBS AVG” value with HRE-bla ME-180 cells [3] is “++++ (≥30: ++++)”.

Consider `CC[C@H](C)[C@H](NC(=O)[C@H](Cc1ccccc1)NC(C)=O)C(=O)N[C@@H](CC(=O)O)C(=O)N[C@@H](CCC(=O)O)C(=O)N[C@@]1(C)CCCC=CCCC[C@@](C)(C(=O)N[C@@H](CC(C)C)C(=O)N[C@H](C(=O)N[C@H](C(=O)N[C@@H](CCC(=O)O)C(=O)N[C@@H](CCSC)C(=O)N[C@@H](C)C(=O)N[C@@H](CC(C)C)C(=O)N[C@@H](CC(=O)O)C(=O)N[C@@H](CCCNC(=N)N)C(=O)N[C@H](C(=O)N[C@@H](CCCCN)C(=O)N[C@@H](CCC(=O)O)C(=O)N[C@@H](CC(C)C)C(=O)N2CCC[C@H]2C(=O)N[C@@H](CCC(=O)O)C(=O)N[C@@H](CC(C)C)C(=O)N[C@@H](Cc2c[nH]c3ccccc23)C(=O)N[C@@H](CC(C)C)C(N)=O)[C@@H](C)CC)[C@@H](C)CC)C(C)C)NC(=O)[C@H](C)NC(=O)[C@H](CC(C)C)NC(=O)[C@H](C(C)C)NC1=O` [SP-112] (Ac-FIDE[S5]VLA[S5]LVIEMALDRIKELPELWL-NH2; staple 5-9), for which, in the test with HRE-bla ME-180 cells [1], the “18 h Avg % max inhibition at top conc” value was “+++ (≤25 but <50: +++)” and the EC50 was 5 to 15 µM. For the same compound, the IC50 in test [2] was ≤ 200 nM. In addition, in the test on HRE-bla ME-180 cells [3], the “Viability 1% FBS AVG” value is recorded as “++++ (≥30: ++++)”.

Consider `CCCC[C@H](NC(=O)[C@H](Cc1ccccc1)NC(=O)[C@@H](NC(=O)[C@H](CCC(=O)O)NC(=O)[C@H](CCC(=O)O)NC(=O)[C@H](CC(=O)O)NC(C)=O)C(C)C)C(=O)N[C@@]1(C)CCCC=CCCC[C@@](C)(C(=O)N[C@@H](CCCC)C(=O)N[C@@H](C)C(=O)N[C@@H](CC(C)C)C(=O)N[C@@H](CC(C)C)C(N)=O)NC(=O)[C@H]([C@@H](C)CC)NC(=O)[C@H](C(C)C)NC(=O)[C@H](CC(C)C)NC1=O` [SP-244] (Ac-DEEVF[Nle][S5]LVI[S5][Nle]ALL-NH2; staple 7-11), for which, in the test with HRE-bla ME-180 cells [1], the “18 h Avg % max inhibition at top conc” value is on record as “++++ (≥50: ++++)” and the EC50 is ≤ 5 µM. Further, the IC50 in test [2] was > 700 nM. Also, in the test with HRE-bla ME-180 cells [3], the “Viability 1% FBS AVG” value is reported as “++++ (≥30: ++++)”.

Turning to `CCCC[C@H](NC(=O)[C@H](C)NC(=O)[C@H](CCSC)NC(=O)[C@]1(C)CCCC=CCCC[C@](C)(NC(=O)[C@H](CCSC)NC(=O)[C@H](CC(C)C)NC(=O)[C@@H](NC(=O)[C@H](CCC(=O)O)NC(=O)[C@H](CCC(=O)O)NC(=O)[C@H](CC(=O)O)NC(=O)[C@@H](NC(=O)[C@H](Cc2ccccc2)NC(C)=O)[C@@H](C)CC)C(C)C)C(=O)N[C@@H](CC(C)C)C(=O)N[C@@H](C(C)C)C(=O)N[C@@H]([C@@H](C)CC)C(=O)N1)C(N)=O` [SP-227] (Ac-FIDEEVLM[S5]LVI[S5]MA[Nle]-NH2; staple 9-13), in the test with HRE-bla ME-180 cells [1], the “18 h Avg % max inhibition at top conc” value was “++ (≤10 but <25: ++)” and the EC50 is > 30 µM. For the same compound, the IC50 in test [2] was > 700 nM. The “Viability 1% FBS AVG” value in the test on HRE-bla ME-180 cells [3] is reported as “++++ (≥30: ++++)”.
